# How the values were obtained:
# [1] = tested on: Nrk2; assay: NAD synthesis enzyme mRNA in rotenone-treated DRG neurons (qRT-PCR); assay type: cell-based, rat; conditions: 0.1 μM and 1 μM, 24 hours
# Description: FIG. 6A-B illustrates expression analysis of NAD biosynthetic enzymes in mammal showing (A) NAD biosynthesis enzyme mRNA levels after 1, 3, 7, and 14 days after nerve transection in rat DRG were determined by qRT-PCR in which the expression level was normalized to glyceraldehydes-3-phosphate dehydrogenase expression in each sample and is indicated relative to the expression level in non-axotomized DRG; (B) neurite degeneration introduced by incubation DRG in 1 or 0.1 μM rotenone for indicated time and NAD synthesis enzyme mRNA levels were determined by qRT-PCR as described in the text.
# Real-time quantitative reverse transcription-PCR analysis. All the surgical procedures were performed according to National Institute of Health guidelines for care and use of laboratory animals at Washington University. […] Quantitative reverse transcription (RT)-PCR was performed by monitoring in real-time the increase in fluorescence of the SYBR-GREEN dye on a TaqMan 7700 Sequence Detection System (Applied Biosystems).
# To investigate the expression of mammalian NAD biosynthetic enzymes in the nervous system, we performed quantitative RT-PCR using RNA from mouse brain, retina, spinal code, and DRG at age of E14, P0, P7, P14 and P21. […] We also analyzed expression of NAD synthetic enzymes during the axonal degeneration caused by neurotoxin in cultured rat DRG neuron. […]
# [2] = tested on: neuro2A cells; assay: neurite outgrowth in Neuro2a cells; assay type: cell-based; conditions: 0.2% FCS; resveratrol 10 μM or AICAR 1 mM
# Description: FIG. 11A-D illustrates the resveratrol and AICAR stimulation of neurite outgrowth in Neuro2a cells. Neuro2a cells were switched to serum-starvation medium (medium containing 0.2% FCS) and treated with DMSO (vehicle control), resveratrol (10 μM) or AICAR (1 mM). (A) Serum deprivation of Neuro2a cells results in growth of short neurites that increase in length over 72 h. (B) Resveratrol induced rapid neurite outgrowth resulting in elaborate neurite network formation by 48 h. (C) AICAR stimulated extensive neurite outgrowth similar to that observed with resveratrol. (D).
# FIG. 12A-M illustrates the dependency of resveratrol-induced neurite outgrowth and mitochondrial biogenesis on AMPK. Neuro2a cells were infected with lentivirus expressing GFP only (FUGW, control), dominant negative AMPK (dnAMPK) or constitutively active AMPK (caAMPK). Three days later cells were shifted to serum-starvation medium containing DMSO (control) or resveratrol (10 μM). In addition, uninfected Neuro2a cells in serum-starvation medium were treated with resveratrol alone, the AMPK inhibitor Compound C (CC, Biomol International L.P. (Plymouth Meeting, Pa.)) (10 μM) alone or with resveratrol and CC together. Images of the cultures captured in bright field and green fluorescence were overlaid to visualize neurite outgrowth. […] Neurite length in cells treated with caAMPK+resveratrol is also shown (G). […] Values were normalized to the 18S transcript. Data shown is representative of two independent experiments.
# (§1) Cell culture and Reagents. Neuro2 cells obtained from ATCC were grown in MEM with 1.5 g/L sodium bicarbonate, 0.1 mM nonessential amino acids, 0.1 mM sodium pyruvate, 2 mM L-glutamine with 10% FCS. For differentiation, cells were switched to serum-starvation medium (containing 0.2% FCS). For neurite outgrowth measurements, experiments were done in quadruplicate and 100 neurites per well were randomly measured using the Metamorph software. Dorsal root ganglia sensory and cortical neurons were established from E13.5 mouse embryos, maintained in neurobasal medium supplemented with B27 (and NGF for DRG neurons) and infected with lentiviruses as described (Araki et al., 2004, Science 305:1010-1013; Hawley et al., 2005, Cell Metab 2:21-23). Resveratrol was a gift from Sirtris Pharmaceuticals (Cambridge Mass.) and AICAR was obtained from Toronto Research (North York, Canada). Splitomycin and Compound C were purchased from Biomol (Plymouth Meeting, Pa.) and Calbiochem (San Diego, Calif.). Sirtinol and nicotinamide were purchased from Sigma (Saint Louis, Mo.)
# (§2) Neuro2a cells are a widely used as in vitro model of neuronal differentiation. These cells cease to proliferate and begin to differentiate, as evidenced by neurite outgrowth, in response to serum starvation, retinoic acid, or growth factors like neurotrophins and GDNF family ligands. […] Neuro2a cells grown under serum starvation conditions (0.2% fetal calf serum) were treated with AICAR (1 mM) or resveratrol (10 μM).
# Since resveratrol activated AMPK and altered the differentiation of Neuro2a cells, we next asked whether AMPK activity was required for resveratrol-induced neurite outgrowth. To address this issue, we infected Neuro2a cells with lentivirus expressing either GFP alone (FUGW-control) or dominant negative AMPK (dnAMPK). After 3 days growth to allow robust lentiviral transgene expression, the medium was replaced with serum starvation medium. […] Resveratrol-induced neurite outgrowth was reduced in the presence of the AMPK pharmacological inhibitor Compound C (CC 10 μM) further supporting the importance of AMPK activity for resveratrol-induced neurite outgrowth.
# [3] = tested on: neuro2A cells; assay: Neuro2a cell proliferation, Ki67 immunocytochemistry; assay type: cell-based; conditions: 0.2% fetal calf serum; AICAR 1 mM or resveratrol 10 μM; 24 h after plating; DMSO controls 50%
# Description: as §2
# [4] = tested on: neuro2A cells; assay: survival of Neuro2A cells in nutrient-deprived conditions; assay type: cell-based; conditions: regardless of the FCS concentration (10% or 0.2%)
# Description: When Neuro2A cells are grown in culture in presence of 10% FCS, cells proliferate and ultimately die if cells are not passaged. If grown in the presence of 0.2% FCS, neuro2A cells differentiate and project neurites but ultimately die within one week.
# [5] = tested on: DRG neurons; assay: axonal injury of DRG neurons after hypoxia and reoxygenation; assay type: cell-based; conditions: preincubation 45 min or lentiviral expression; 0.1% O2 8 or 16 hrs, 20 hrs reoxygenation
# Description: FIG. 18 illustrates that activation of AMPK protects axons while inhibition of AMPK function enhances axonal injury during oxygen deprivation.
# To examine whether AMPK activation prior to hypoxic stress protects axons from injury, either constitutively active AMPK (CaAMPK) was expressed in DRG neurons, or neurons were preincubated with the AMPK activator AICAR for 45 min prior to hypoxia. […] Thus, treatments that increase AMPK activity (e.g. resveratrol, AICAR) can block the axonal damage and are neuroprotective.
# [6] = tested on: AMPK; assay: AMPK phosphorylation in Neuro2a cells (phospho-specific western blot); assay type: cell-based; conditions: resveratrol 10 μM or AICAR 1 mM; 2 h up to 72 h
# Description: (§3) FIG. 10A-D illustrates resveratrol activation of AMP kinase in Neuro2a cells. Neuro2a cells were switched to serum-starvation medium (medium containing 0.2% FCS) and treated with DMSO (vehicle control), resveratrol (10 μM) or 5-aminoimidazole-4-carboxamide-1-β-D-ribofuranoside (AICAR) (1 mM). […] Very low levels of phosphorylated AMPK and ACC were detected in DMSO treated control cells at all time points tested. (C) Densitometric analysis of changes in phosphorylated AMPK and (D) phosphorylated ACC under different conditions is shown.
# as §1
# Plasmids and viruses. The dominant negative (dnAMPK) and constitutively active (caAMPK) plasmids were gifts from Russell Jones (University of Pennsylvania, Philadelphia Pa.), and pCXN-Cre was a gift of Inder Verma (Salk Institute, San Diego, Calif.). All constructs were subcloned into the lentiviral shuttle vector FCIV and verified by nucleotide sequence analysis. Viruses were prepared as previously described (Araki et al., 2004, Science 305:1010-1013). Protein and mRNA analysis. Immunoprecipitations and western blot analysis were performed by standard methods using antibodies directed against total AMPK, phosphorylated AMPK, total ACC or phosphorylated ACC that were obtained from Cell Signaling Technology (Beverley, Mass.). The phospho-AMPK antibody detects endogenous AMPK α1 and α2 when phosphorylated at threonine 172. The LKB1 antibody was purchased from Upstate (Lake Placid, N.Y.). Quantitative RT-PCR analysis was performed using Sybr-Green methodology on a model 7700 instrument (Applied Biosystems) as previously described (Araki et al., 2004, Science 305:1010-1013). Primer sequences were those used in previous studies (Motoshima, et al., 2006, J Physiol 574:63-71).
# To explore the role of polyphenols, in particular, of resveratrol, we tested whether resveratrol altered the activity of AMPK in neuronal cells. Neuro2a neuroblastoma cells were treated with resveratrol (10 μM) and AMPK activation was examined using phospho-AMPK specific antibodies. […] To confirm that AMPK activation by resveratrol results in typical AMPK-mediated downstream responses, we monitored phosphorylation of ACC (acetyl Co-A carboxylase), a primary target of activated AMPK. […] To examine a potential mechanism of resveratrol-mediated AMPK activation, we measured cellular ATP levels as a decreased ATP:AMP ratio increases the phosphorylation of AMPK. ATP levels were monitored using a luciferase-based assay in neuro2A cells treated with resveratrol or Oligomycin, an inhibitor of mitochondrial oxidative phosphorylation and therefore ATP production. While the ATP concentration dropped from 5.874 μM in DMSO-treated cells (control) to 0.976 μM in Oligomycin treated cells within 2 hr, the ATP concentration in resveratrol-treated Neuro2a cells was not altered from control either at 2 hr (6.33 μM) or 24 hr (6.42 μM).
# [7] = tested on: acetyl Co-A carboxylase (ACC); assay: ACC phosphorylation in Neuro2a cells (phospho-specific western blot); assay type: cell-based; conditions: resveratrol 10 μM or AICAR 1 mM; all time points to 72 hr
# Description: as §3
# Plasmids and viruses. […] Quantitative RT-PCR analysis was performed using Sybr-Green methodology on a model 7700 instrument (Applied Biosystems) as previously described (Araki et al., 2004, Science 305:1010-1013). […]
# To explore the role of polyphenols, in particular, of resveratrol, we tested whether resveratrol altered the activity of AMPK in neuronal cells. […] To confirm that AMPK activation by resveratrol results in typical AMPK-mediated downstream responses, we monitored phosphorylation of ACC (acetyl Co-A carboxylase), a primary target of activated AMPK. […] To examine a potential mechanism of resveratrol-mediated AMPK activation, we measured cellular ATP levels as a decreased ATP:AMP ratio increases the phosphorylation of AMPK. […]
SMILES,increase in expression of Nrk2 [1],neurite outgrowth compared to serum starvation alone [2],proliferating cells (Ki67) [3] [%],cell survival [4],axonal injury (axonal beading) after hypoxia [5],AMPK phosphorylation [6],ACC phosphorylation [7]
C=C(C)[C@H]1Cc2c(ccc3c2O[C@@H]2COc4cc(OC)c(OC)cc4[C@@H]2C3=O)O1 [rotenone],more than 6 folds,–,–,–,–,–,–
"NC(=O)c1ncn([C@@H]2O[C@H](CO)[C@@H](O)[C@H]2O)c1N [AICAR, 5-aminoimidazole-4-carboxamide-1-β-D-ribofuranoside, reference compound]",–,increased neurite outgrowth,12.8,resistant to death for a prolonged period of time,significantly reduced axonal injury after hypoxia,stimulated AMPK phosphorylation,promoted increased phosphorylation

# — patent US20160367497A1, “METHODS AND COMPOSITIONS FOR TREATING NEUROPATHIES” (Washington University, priority 2007, published 2016)
